# Assay results from patent US7407940B2, “Antimicrobial hexapeptides” (Helix BioMedix Inc., priority 2005, dated 2008).
# Read-outs that look alike come from different tables or passages of the source. Where a SMILES comes first, the peptide text is derived from it. Where no end group is shown, it is not given here. The star is where a group is joined. Undecanoyl = CCCCCCCCCCC(=O)*; Nonanoyl = CCCCCCCCC(=O)*; Heptanoyl = CCCCCCC(=O)*; Cap = not defined here
# What was measured:
# Assay type in all cases: cell-based
# [1] = test system: Candida albicans
# Experimental: (§1) MICs (minimal inhibitory concentrations) were determined for the hexapeptides of interest using a slightly modified version of the NCCLS (National Committee for Clinical Laboratory Standards) broth microdilution method as described previously (Steinberg et al., AAC 41: 1738, 1997). Briefly, antimicrobial agents were prepared as 10× concentrates in the most appropriate solvent. For the hexapeptide, 0.01% acetic acid containing 0.2% bovine serum albumin as a carrier protein was used. Inocula were prepared by resuspending colonies from a BAP (please spell out this term) in medium and adjusting the suspension to match that of a 0.5 McFarland standard. The suspension was diluted into fresh medium (as recommended by NCCLS for the organism) to give 2×10^5 to 7×10^5 CFU/ml for bacteria or 2×10^3 to 7×10^3 CFU/ml for Candida. After dispensing 100 μl aliquots of the microbial suspension into each well of a 96-well polypropylene microtiter plate, 11 μl of test compound was added. The MIC was defined as the lowest concentration of drug which prevented visible turbidity after 16 to 20 hours (bacteria) or 46 to 50 hours (Candida) at 35° C.
# [2] = test system: Pseudomonas aeruginosa; design: MIC, lipid length SAR: unit not given here; settings: for MIC, lipid length SAR: P.aeruginosa
# Experimental: as §1
# [3] = test system: Salmonella typhimurium 14028S; assay: MIC, broth microdilution, S. typhimurium; design: unit not given here; settings: for MIC, lipid length SAR: S.typhimurium; for Anti-microbial activity (MIC): S. typhimurium 14028S
# Experimental: as §1
# [4] = test system: Escherichia coli UB1005; assay: MIC, broth microdilution, E. coli; design: unit not given here
# Experimental: as §1
# [5] = T.W. Candida #184, azole resistant clinical isolate
# [6] = T.W. Candida #185 (CDR1,2), azole resistant clinical isolate
# [7] = T.W. Candida #186 (CDR1,2), azole resistant clinical isolate
# [8] = T.W. Candida #187 (CDR1,2), azole resistant clinical isolate
# [9] = T.W. Candida #192 (CDR1,2), azole resistant clinical isolate
# [10] = T.W. Candida #193, azole resistant clinical isolate
# [11] = T.W. Candida #194, azole resistant clinical isolate
# [12] = T.W. Candida #195, azole resistant clinical isolate
# [13] = T.W. Candida #196 (CDR1,2), azole resistant clinical isolate
# [14] = T.W. Candida #197, azole resistant clinical isolate
# [15] = T.W. Candida #198, azole resistant clinical isolate
# [16] = T.W. Candida #199 (CDR1,2), azole resistant clinical isolate
compound,measurement,setting,value
"CC(=O)N1CCN(c2ccc(OCC3COC(Cn4ccnc4)(c4ccc(Cl)cc4Cl)O3)cc2)CC1 (centres unmarked) [Ketoconazole, reference compound]",MIC,[1]; [5],64 µg/mL
same,MIC,[1]; [6],8 µg/mL
same,MIC,[1]; [7],8 µg/mL
same,MIC,[1]; [8],16 µg/mL
same,MIC,[1]; [9],32 µg/mL
same,MIC,[1]; [10],8 µg/mL
same,MIC,[1]; [11],16 µg/mL
same,MIC,[1]; [12],128 µg/mL
same,MIC,[1]; [13],32 µg/mL
same,MIC,[1]; [14],> 256 µg/mL
same,MIC,[1]; [15],1 µg/mL
same,MIC,[1]; [16],16 µg/mL
"Clc1ccc(COC(Cn2ccnc2)c2ccc(Cl)cc2Cl)c(Cl)c1 (centres unmarked) [Miconazole, reference compound]",MIC,[1]; [5],> 256 µg/mL
same,MIC,[1]; [6],> 256 µg/mL
same,MIC,[1]; [7],> 256 µg/mL
same,MIC,[1]; [8],> 256 µg/mL
same,MIC,[1]; [9],> 256 µg/mL
same,MIC,[1]; [10],> 256 µg/mL
same,MIC,[1]; [11],> 256 µg/mL
same,MIC,[1]; [12],> 256 µg/mL
same,MIC,[1]; [13],128 µg/mL
same,MIC,[1]; [14],> 256 µg/mL
same,MIC,[1]; [15],128 µg/mL
same,MIC,[1]; [16],> 256 µg/mL
CCCCCCCCC(=O)N[C@@H](CCCCN)C(=O)N[C@@H](Cc1ccccc1)C(=O)N[C@@H](CCCCN)C(=O)N[C@@H](Cc1c[nH]c2ccccc12)C(=O)N1CCC[C@H]1C(=O)N[C@@H](Cc1c[nH]c2ccccc12)C(N)=O [compound 70] (Nonanoyl-KFKWPW-NH2),Minimal Inhibitory Concentrations (Mics),[2],32-64 Mg/Ml
CCCCCCCCCCC(=O)N[C@@H](CCCCN)C(=O)N[C@@H](Cc1ccccc1)C(=O)N[C@@H](CCCCN)C(=O)N[C@@H](Cc1c[nH]c2ccccc12)C(=O)N1CCC[C@H]1C(=O)N[C@@H](Cc1c[nH]c2ccccc12)C(N)=O [compound 79] (Undecanoyl-KFKWPW-NH2),Minimal Inhibitory Concentrations (Mics),[1],4-8 Mg/Ml
same,Minimal Inhibitory Concentrations (Mics),[2],8-16 Mg/Ml
Cap-KFKWPW-NH2 (not fully specified; printed as Cap-KFKWPW-NH2; reading uncertain) [SEQ ID NO: 71],"MIC, lipid length SAR",[2],>128
same,"MIC, lipid length SAR",[3],128
FAKLAK-NH2 [SEQ ID NO: 20],Anti-microbial activity (MIC),[4],>128
same,Anti-microbial activity (MIC),[3],>128
FALKKL-NH2 [SEQ ID NO: 14],Anti-microbial activity (MIC),[4],>128
same,Anti-microbial activity (MIC),[3],>128
FKFKPV-NH2 [SEQ ID NO: 12],Anti-microbial activity (MIC),[4],>128
same,Anti-microbial activity (MIC),[3],>128
FKLAPW-NH2 [SEQ ID NO: 16],Anti-microbial activity (MIC),[4],>128
same,Anti-microbial activity (MIC),[3],>128
FPWKFK-NH2 [SEQ ID NO: 34],Anti-microbial activity (MIC),[4],>128
same,Anti-microbial activity (MIC),[3],>128
FRHFRW-NH2 [SEQ ID NO: 18],Anti-microbial activity (MIC),[4],>128
same,Anti-microbial activity (MIC),[3],>128
H-RWRWPW-NH2 [compound 4],Minimal Inhibitory Concentrations (Mics),[1],64-128 Mg/Ml
Hep-KFKWPW-NH2 (Heptanoyl-KFKWPW-NH2; SMILES CCCCCCC(=O)N[C@@H](CCCCN)C(=O)N[C@@H](Cc1ccccc1)C(=O)N[C@@H](CCCCN)C(=O)N[C@@H](Cc1c[nH]c2ccccc12)C(=O)N1CCC[C@H]1C(=O)N[C@@H](Cc1c[nH]c2ccccc12)C(N)=O) [SEQ ID NO: 69],"MIC, lipid length SAR",[2],128
same,"MIC, lipid length SAR",[3],128
KFFWPF-NH2 [SEQ ID NO: 36],Anti-microbial activity (MIC),[4],>128
same,Anti-microbial activity (MIC),[3],>128
KFKSFK-NH2 [SEQ ID NO: 21],Anti-microbial activity (MIC),[4],>128
same,Anti-microbial activity (MIC),[3],>128
KFVWPW-NH2 [SEQ ID NO: 32],Anti-microbial activity (MIC),[4],>128
same,Anti-microbial activity (MIC),[3],>128
KLAKLL-NH2 [SEQ ID NO: 27],Anti-microbial activity (MIC),[4],>128
same,Anti-microbial activity (MIC),[3],>128
KPVKFK-NH2 [SEQ ID NO: 31],Anti-microbial activity (MIC),[4],>128
same,Anti-microbial activity (MIC),[3],>128
KPVWPF-NH2 [SEQ ID NO: 35],Anti-microbial activity (MIC),[4],>128
same,Anti-microbial activity (MIC),[3],>128
